Row | Structure (SMILES) | logP
1 | CCCCCCNC(=C[N+](=O)[O-])NS(=O)(=O)c1cnccc1NCCCCCC | 1.67
2 | CCNc1ccncc1S(=O)(=O)NC(=C[N+](=O)[O-])NC(C)C | -0.48
3 | CCCCCCCNC(=C[N+](=O)[O-])NS(=O)(=O)c1cnccc1NCCCCCC | 1.97
4 | CCCCCCCCNC(=C[N+](=O)[O-])NS(=O)(=O)c1cnccc1NCCCCCCCC | 2.86
5 | CCCCCCNC(=C[N+](=O)[O-])NS(=O)(=O)c1cnccc1Nc1cccc(C)c1 | 1.66
6 | O=[N+]([O-])C=C(NC1CCCCC1)NS(=O)(=O)c1cnccc1NC1CCCCC1 | 1.59

Next, values leading:

Row | logP | Structure (SMILES)
7 | 2.27 | CCCCCCCCNC(=C[N+](=O)[O-])NS(=O)(=O)c1cnccc1NCCCCCC
8 | 2.3 | CCCCCCCNC(=C[N+](=O)[O-])NS(=O)(=O)c1cnccc1NCCCCCCC
9 | 1.99 | CCCCCCCNc1ccncc1S(=O)(=O)NC(=C[N+](=O)[O-])NCCCCCC
10 | 2.59 | CCCCCCCCNc1ccncc1S(=O)(=O)NC(=C[N+](=O)[O-])NCCCCCCC
11 | 2.31 | CCCCCCCCNc1ccncc1S(=O)(=O)NC(=C[N+](=O)[O-])NCCCCCC
